The text below walks through data of patent US20250368629A1, “FLAVONOID COMPOUNDS AND METHODS AND MATERIALS FOR USING FLAVONOID COMPOUNDS TO TREAT FIBROTIC CONDITIONS” (Mayo Foundation for Medical Education and Research, priority 2022, published 2025).

For series [1], the system named is senescent human adult lung fibroblasts. Nature of the series: Senescent fibroblast survival (DAPI cell counts). To be noted: 96 hours, 3 point and 6-point dose response. Format: cell-based. The procedure:
(§1) For senescent fibroblast survival experiments, human adult lung fibroblasts were replicatively passaged until senescence (confirmed by RNA and senescence associated beta galactosidase staining). Cells were then plated into 96-well plates and treated with the indicated compound and incubated for 96 hours. Cells were then fixed using 4% PFA, permeabilized using 0.25% triton x-100, and nuclear stained using DAPI. Cells were then imaged using a 4× objective on a Cytation5 microscope and cell counts were quantified using automated software (Biotek Gen5). Data shown are plotted as % survival, normalized to the vehicle treated well. Mean+/−SEM, N=3 independent experiments. For the TGFβ stimulated collagen deposition experiments (square datapoints), human adult lung fibroblasts (passage 3) were plated into 96-well plates and treated with the indicated compound +2 ng/mL TGFβ to stimulated collagen expression. Cells were incubated for 96 hours, fixed using 4% PFA, permeabilized using 0.25% triton x-100, and stained using a primary antibody recognizing type I collagen and a secondary infrared conjugated antibody. Wells were then imaged at 1× using a Odyssey Lx (LI-CORE) infrared imager and collagen intensity was quantified using automated software. Data shown are plotted as % collagen intensity, normalized to the vehicle treated well. Mean+/−SEM, N=3 independent experiments.

Series [2] deals with Human adult lung fibroblasts (passage 3). Nature of the series: TGFβ stimulated collagen deposition. Type of series: cell-based. The conditions noted are these: +2 ng/mL TGFβ, 96 hours. The procedure: as §1
The test system is the same in series [3]. Nature of the series: Fibroblast activation (TGFβ, alpha-smooth muscle actin). Format: cell-based. To be noted: +2 ng/mL TGFβ, 96 hours, alpha-smooth muscle actin intensity. How it is done: Human adult lung fibroblasts (passage 3) were plated into 96-well plates and treated with the indicated compound (6-point dose-response) +2 ng/mL TGFβ to stimulated fibroblast activation. Cells were incubated for 96 hours, fixed using 4% PFA, permeabilized using 0.25% triton x-100, and stained using a primary antibody recognizing alpha-smooth muscle actin and a secondary fluorescent conjugated antibody, and DAPI. Cells were then imaged using a 4× objective on a Cytation5 microscope and alpha-smooth muscle actin intensity was quantified using automated software (Biotek Gen5). Data shown are the IC50 values for each compounds efficacy at reducing expression of alpha-smooth muscle actin, calculated from the calculated dose-response curves, N=3 independent.

In series [4] the test system is low passage proliferating fibroblasts. Nature of the series: Apoptosis of low passage proliferating lung fibroblasts (cleaved caspase-3, DAPI). The conditions noted are these: low passage proliferating fibroblasts from the same donor, 96 hours, 6-point dose-response, N=3; for EC50: read-out: Proliferating fibroblast apoptosis EC50. Type of series: cell-based, human. The procedure: (§2) Human adult lung fibroblasts were replicatively passaged until senescence (confirmed by RNA and senescence associated beta galactosidase staining). In a parallel experiment, low passage proliferating fibroblasts from the same donor were compared. Cells were plated into 96-well plates and treated with the indicated compound (6-point dose-response) and incubated for 96 hours. Cells were then fixed using 4% PFA, permeabilized using 0.25% triton x-100, and nuclear stained using a primary antibody for cleaved caspase-3, secondary fluorescence conjugated antibody, and DAPI. Cells were then imaged using a 4× objective on a Cytation5 microscope and cell counts were quantified using automated software (Biotek Gen5). Data shown are the EC50 values calculated for each compounds efficacy to induce apoptosis in senescence vs. proliferating lung fibroblasts, from the calculated dose-response curves, N=3 independent experiments.

For series [5], the system named is senescent human adult lung fibroblasts. Nature of the series: Apoptosis of senescent lung fibroblasts (cleaved caspase-3, DAPI). Format: cell-based. To be noted: replicatively senescent human adult lung fibroblasts, 96 hours, 6-point dose-response, N=3; for EC50: read-out: Senescent fibroblast apoptosis EC50. The procedure:
as §2

Series [6] deals with T1, DRAK1 (Homo sapiens, UniProt Q9UEE5).
T1 construct: purchased Reaction Biology
T1 sequence (Q9UEE5 1-414): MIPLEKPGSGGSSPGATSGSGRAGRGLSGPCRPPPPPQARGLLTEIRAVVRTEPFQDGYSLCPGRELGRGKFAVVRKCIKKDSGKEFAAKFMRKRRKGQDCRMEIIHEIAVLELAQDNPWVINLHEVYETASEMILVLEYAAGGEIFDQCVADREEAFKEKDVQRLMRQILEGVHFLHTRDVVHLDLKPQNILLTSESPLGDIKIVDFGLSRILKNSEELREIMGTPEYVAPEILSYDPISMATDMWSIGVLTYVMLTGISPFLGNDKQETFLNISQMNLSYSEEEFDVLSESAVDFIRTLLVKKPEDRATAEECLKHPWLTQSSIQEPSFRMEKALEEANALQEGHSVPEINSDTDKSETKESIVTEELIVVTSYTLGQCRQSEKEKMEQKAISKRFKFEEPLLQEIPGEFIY
The series is described as follows: DRAK1 kinase activity assay (radiolabeled ATP, Reaction Biology). Type of series: biochemical. To be noted: FIG. 30. The procedure: DRAK1 kinase activity was also assessed. […] A DRAK1 kinase activity was performed by Reaction Biology. DRAK1 kinase activity was measured and plotted (FIG. 30).

The test system of series [7] is col1a2-mTmG mice. Nature of the series: Bleomycin injury and lung fibrosis, flow sorted lung cell populations, qPCR. Format: in vivo, mouse. The conditions noted are these: daily from day 10 after bleomycin injury, lungs sorted on day 14. The procedure: Seven days prior to injury col1a2-mTmG mice were treated with tamoxifen to turn on GFP expression in collagen producing fibroblasts. F-19 was administered daily starting on day 10 after injury, lungs were isolated, and lung tissue was flow sorted for fibroblasts, epithelial cells, and leukocytes on day 14. The sorted cells were subjected to RNA isolation followed by qPCR analysis of the indicated genes in each population of cells. N=3 mice/group.
For orientation: In qPCR the cycle at which signal appears reflects the starting amount.

Series [8] deals with wild type mice. Nature of the series: Comparative flavonoid efficacy and toxicity in aged brain and liver (real-time PCR). Type of series: in vivo, mouse. An excerpt:
Five-month-old and twenty-eight month old wild type mice were oral gavage treated with the indicated concentrations of flavonoids (F, Q, compound 19, or compound 20) or vehicle for four consecutive days and were euthanized one week later.

Series [9] in a line: in vitro. Type of series: in vitro ADME. The conditions noted are these: rat; for Plasma bound / Plasma unbound: 4 h. How it is done: Plasma protein binding assays were also performed (Table 2). Compounds were incubated with rat plasma for 4 hours. The percent of F-4N recovered was analyzed by LC-MS. Warfarin was used as a control for a compound with high plasma protein binding. Analysis performed by Cyprotex (Framingham, MA).

As to `CCOc1ccc(-c2oc3ccccc3c(=O)c2O)cc1OCC` [2-(3,4-diethoxyphenyl)-3-hydroxy-4h-1-benzopyran-4-one], in [1], the “senescent fibroblast survival (in words)” value is “effective toxicity against senescent cells”. In addition, the “TGFβ stimulated collagen deposition (in words)” value in [2] is given as “blocked collagen deposition”.

With `CCOc1ccc(-c2oc3ccc(C)cc3c(=O)c2O)cc1OC` [2-(4-ethoxy-3-methoxyphenyl)-3-hydroxy-6-methylchromen-4-one], the “senescent fibroblast survival (in words)” value in [1] is given as “effective toxicity against senescent cells”. In series [2], the “TGFβ stimulated collagen deposition (in words)” value was “blocked collagen deposition”.

With `COc1cccc2oc(-c3ccc(OCc4ccccc4)cc3)c(O)c(=O)c12` [5-MeOH—F-20], the EC50 (usually the concentration that produces a half-maximal response) turned out to be 0.9 µM in series [3], 5.5 µM in [4] and 0.35 µM in series [5].

On to `COc1cccc2oc(-c3ccc(OCc4ccncc4)cc3)c(O)c(=O)c12` [5-MeOH—F—4N], for which the EC50 in series [3] was found to be 2.1 µM. In addition, in series [6], the DRAK1 kinase activity result is “inactive”. The “Proliferating fibroblast apoptosis EC50” value in [4] was “inactive”. Further, in [5], the “Senescent fibroblast apoptosis EC50” value was “inactive”.

Consider `CCOc1ccc(-c2oc3ccc(OC)cc3c(=O)c2O)cc1` [6-MeOH—F-19], for which the EC50 in series [3] is 4 µM; in series [4], 15.1 µM; in series [5], 2.7 µM.

With `COc1ccc2oc(-c3ccc(OCc4ccccc4)cc3)c(O)c(=O)c2c1` [6-MeOH—F-20], the EC50 in [3] came to 2 µM; in series [4], 5.1 µM; in [5] it was 0.8 µM.

For `CCOc1ccc(-c2oc3ccccc3c(=O)c2O)cc1OC` [F-19(3MeOH)], the EC50 in series [3] stood at 6.4 µM; in [4], 10.5 µM.

In the case of `CCCOc1ccc(-c2oc3ccccc3c(=O)c2O)cc1` [F-19(Me)], the EC50 in series [3] worked out at 4 µM; in [4] it was 19.5 µM; in series [5] it was 3.4 µM.

For `CCOc1ccc(-c2oc3ccccc3c(=O)c2O)cc1` [F-19], the figures for the EC50 in series [3], in [4] and in [5] were 2.4 µM, 24.5 µM and 2.4 µM, respectively. The “senescence markers or inflammatory cytokines in leukocytes (CD45+ cells), qPCR” value in series [7] was “No changes”.

For `O=c1c(O)c(-c2ccc(OCc3ccccc3)cc2)oc2ccccc12` [F-20], the EC50 in series [3] worked out at 2 µM; in series [4] it was 27.6 µM; in series [5] it was 1.5 µM.

For the molecule `O=c1c(O)c(-c2ccc(OCc3ccccn3)cc2)oc2ccccc12` [F—2N], the “Fibroblast activation (EC50)” value in [3] is “inactive”. The “Proliferating fibroblast apoptosis EC50” value in [4] was “inactive”. For the same molecule, the “Senescent fibroblast apoptosis EC50” value in series [5] was “inactive”.

In the case of `O=c1c(O)c(-c2ccc(OCc3cccnc3)cc2)oc2ccccc12` [F—3N], the “Fibroblast activation (EC50)” value in [3] was “inactive”. The “Proliferating fibroblast apoptosis EC50” value in series [4] is “inactive”. The EC50 in series [5] worked out at 44.1 µM.

As for `O=c1c(O)c(-c2ccc(OCC3CC3)cc2)oc2ccccc12` [F—CP], the figures for the EC50 in series [3], in [4] and in series [5] were 1.1 µM, 10.9 µM and 0.9 µM, respectively.

Regarding `O=c1c(O)c(-c2ccc(O)c(O)c2)oc2cc(O)cc(O)c12` [Quercetin, quercetin], in [8] (oral gavage four consecutive days, euthanized one week later), the “CD68 expression (indicator of inflammatory activation) in brain or liver” value is given as “lack of drug-induced toxicity”. Further, the recovery at 4 h, 5 μM in series [9] is 0.8%. In series [9] (5 μM), this molecule had a Plasma bound of 95% and a Plasma unbound of 5.0%.

For `CC(=O)CC(c1ccccc1)c1c(O)c2ccccc2oc1=O` (stereo not shown) [Warfarin], in series [9], the recovery at 4 h, 2 μM worked out at 100%. In [9] (2 μM), this molecule showed a Plasma bound of 99% and a Plasma unbound of 0.971%.

As for `O=c1c(O)c(-c2ccc(O)c(O)c2)oc2cc(O)ccc12` [fisetin], the “CD68 expression (indicator of inflammatory activation) in brain or liver” value in [8] (mouse, in vivo, po) was “lack of drug-induced toxicity”.
